Experimental data from patent US10703735B2, “4-phenyl-coumarin derivatives, processes for their preparation and uses thereof for the treatment of cancer” (Lead Discovery Center GmbH, priority 2018, dated 2020).

biological target: mitochondrial RNA-polymerase (POLRMT) (Mus musculus, UniProt Q8BKF1); assay: Homogeneous TR-FRET assay for mitochondrial transcription activity; format: biochemical; details: homogeneous TR-FRET assay according to Example 4; read-out: mitochondrial transcription activity (IC-50)
Sequence (Q8BKF1 42-1207): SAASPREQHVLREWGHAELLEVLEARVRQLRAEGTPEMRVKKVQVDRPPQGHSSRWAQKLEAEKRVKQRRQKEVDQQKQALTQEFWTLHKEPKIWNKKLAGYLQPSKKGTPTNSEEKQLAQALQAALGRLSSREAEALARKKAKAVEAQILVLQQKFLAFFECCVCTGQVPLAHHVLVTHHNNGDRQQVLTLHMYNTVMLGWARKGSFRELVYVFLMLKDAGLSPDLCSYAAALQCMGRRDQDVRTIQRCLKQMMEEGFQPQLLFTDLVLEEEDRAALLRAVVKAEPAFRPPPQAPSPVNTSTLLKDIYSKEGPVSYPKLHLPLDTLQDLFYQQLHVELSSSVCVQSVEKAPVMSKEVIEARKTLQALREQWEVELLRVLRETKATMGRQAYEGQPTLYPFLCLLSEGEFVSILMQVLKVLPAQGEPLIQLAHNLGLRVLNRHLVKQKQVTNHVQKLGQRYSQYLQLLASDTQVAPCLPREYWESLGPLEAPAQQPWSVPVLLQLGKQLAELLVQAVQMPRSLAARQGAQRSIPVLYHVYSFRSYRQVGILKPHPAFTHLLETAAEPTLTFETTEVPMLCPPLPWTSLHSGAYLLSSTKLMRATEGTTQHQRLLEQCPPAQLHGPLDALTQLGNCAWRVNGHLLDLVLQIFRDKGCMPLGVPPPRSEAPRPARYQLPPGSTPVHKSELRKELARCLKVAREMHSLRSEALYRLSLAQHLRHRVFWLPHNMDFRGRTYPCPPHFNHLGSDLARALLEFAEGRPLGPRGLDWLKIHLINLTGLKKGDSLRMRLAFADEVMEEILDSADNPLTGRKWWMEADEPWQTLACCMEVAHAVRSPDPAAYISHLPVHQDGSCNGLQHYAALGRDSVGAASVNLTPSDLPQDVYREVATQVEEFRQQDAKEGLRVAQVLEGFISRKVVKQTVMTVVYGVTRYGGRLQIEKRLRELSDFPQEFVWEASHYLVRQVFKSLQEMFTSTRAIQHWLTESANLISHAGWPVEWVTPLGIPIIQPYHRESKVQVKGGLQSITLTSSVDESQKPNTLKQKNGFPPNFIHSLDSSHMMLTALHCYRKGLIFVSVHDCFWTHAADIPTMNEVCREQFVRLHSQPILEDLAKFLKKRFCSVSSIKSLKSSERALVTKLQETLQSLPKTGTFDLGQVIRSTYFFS
Text: The TR-FRET assay was basically conducted as described in WO 2016/193231A1, especially as described in example 1 (hereby incorporated by reference). With respect to the background of the mitochondrial transcription it is referred to Falkenberg et al. (2002) and Posse et al. (Posse et al. 2015). The method monitors the activity of mitochondrial RNA-polymerase via detection of the formation of its product, a 407 bp long RNA sequence. Detection of the product is facilitated by hybridization of two DNA-oligonucleotide probes to specific and adjacent sequences within the RNA product sequence. Upon annealing of the probes, two fluorophores that are coupled directly to an acceptor nucleotide probe (ATT0647, 5′) or introduced via a coupled streptavidin interacting with a biotinylated donor nucleotide probe on the other side (Europium cryptate, 3) are brought into sufficient proximity to serve as a fluorescence-donor-acceptor pair as generally described in Walters and Namchuk (2003). Thus, a FRET signal at 665 nm is generated upon excitation at 340 nm.
Briefly, the protocol described here was applied for screening and activity determination in a low-volume 384-well microtiter plate with non-binding surface. For high-throughput application in the 1536-well microtiter plate format, volumes of the reagent mixes were adjusted, maintaining the volumetric ratio. Proteins POLRMT (NM_172551.3), TFAM (NM_009360.4) and TFB2M (NM_008249.4) were diluted from their stocks to working concentrations of 150 nM, 1.8 μM and 330 nM respectively, in a dilution buffer containing 100 mM Tris-HCl pH 8.0, 200 mM NaCl, 10% (v/v) glycerole, 2 mM glutathione (GSH), 0.5 mM EDTA and 0.1 mg/mL BSA. Protein dilutions and template DNA, comprising a pUC18 plasmid encoding the mitochondrial light strand promoter, restriction linearized proximal to the promoter 3′-end (pUC-LSP), were mixed at the twofold final assay-concentration in a reaction buffer, containing 10 mM Tris-HCl pH 7.5, 10 mM MgCl2, 40 mM NaCl, 2 mM GSH, 0.01% (w/v) Tween-20 and 0.1 mg/mL BSA.
5 μL of this mix were dispensed, depending on the chosen microtiter plate format, using multi-channel pipettes or a Multidrop® dispenser (Thermo Fisher Scientific, Waltham Mass.) into the wells of a microtiter plate and incubated at room temperature (RT) for 10 min. Chemical compounds under scrutiny in the assay were applied using contact-free acoustic droplet-dispensing (Echo520® Labcyte Inc., Sunnyvale Calif.) from 10 mM compound stocks in 100% DMSO, to a final concentration of 10 μM or in serial dilution series of the required concentration range. Equal amounts of DMSO without any compound were added to positive control samples, followed by an incubation step at RT for 10 min.
The enzymatic reaction was started by the addition of 5 μL of a mix of dNTPs in reaction buffer to a final concentration of 500 μM each. No nucleotide mix was added to negative control samples. The content of the wells was mixed using a VarioTeleshaker™ (Thermo Fisher Scientific, Waltham Mass.) at 1500 rpm for 45 sec after which the microtiter plate was centrifuged at 500×g for 1 min. The samples were incubated for 2 h at RT with humidity control to avoid evaporation. The detection reagents were prepared in a buffer that was composed, such that the enzymatic reaction was terminated due to chelating of Mg-ions and increased ionic strength, containing 50 mM Tris-HCl pH 7.5, 700 mM NaCl, 20 mM EDTA, and 0.01% (w/v) Tween-20. Importantly Eu-cryptate-coupled streptavidin had to be preincubated with a 100-fold molar excess of a random sequence oligonucleotide for 10 min at RT in the dark to block unspecific binding of single stranded RNA to the protein. Subsequently, the blocked streptavidin(-Eu) was mixed with the DNA-probes on ice and kept away from light until use. […]

Row | IC50 | Structure (SMILES)
1 | 1000 to 10000 nM | CCOC(=O)[C@H]1CCCN(C(=O)C(C)Oc2ccc3c(-c4ccccc4)cc(=O)oc3c2)C1 (mixture of isomers) [Compound 64, ethyl rac-(3S)-1-[2-(2-oxo-4-phenyl-chromen-7-yl)oxypropanoyl]piperidine-3-carboxylate]
2 | 1000 to 10000 nM | CC(Oc1ccc2c(-c3ccccc3)cc(=O)oc2c1)C(=O)N1CCC[C@H](C(=O)N(C)C)C1 (mixture of isomers) [Compound 68, rac-(3S)-N,N-dimethyl-1-[2-(2-oxo-4-phenyl-chromen-7-yl)oxpropanoyl]piperidine-3-carboxamide]
3 | 100 to 1000 nM | CCOC(=O)C(C)Oc1ccc2c(-c3ccc(Cl)cc3)cc(=O)oc2c1 (centres unmarked) [Compound 3, ethyl 2-[4-(4-chlorophenyl)-2-oxo-chromen-7-yl]oxypropanoate]
4 | 100 to 1000 nM | CCOC(=O)C(C)Oc1ccc2c(-c3cccc(Cl)c3)cc(=O)oc2c1 (centres unmarked) [Compound 4, ethyl 2-[4-(3-chlorophenyl)-2-oxo-chromen-7-yl]oxypropanoate]
5 | 100 to 1000 nM | CC(Oc1ccc2c(-c3ccccc3)cc(=O)oc2c1)C(=O)Nc1ccc(CCCO)cc1 (centres unmarked) [Compound 5, N-[4-(3-hydroxypropyl)phenyl]-2-(2-oxo-4-phenyl-chromen-7-yl)oxy-propanamide]
6 | 100 to 1000 nM | CC(Oc1ccc2c(-c3ccccc3)cc(=O)oc2c1)C(=O)Nc1ccccn1 (centres unmarked) [Compound 6, 2-(2-oxo-4-phenyl-chromen-7-yl)oxy-N-(2-pyridyl)propanamide]
7 | 100 to 1000 nM | CCOC(=O)C(C)Oc1ccc2c(-c3ccc(F)cc3)cc(=O)oc2c1 (centres unmarked) [Compound 8, ethyl 2-[4-(4-fluorophenyl)-2-oxo-chromen-7-yl]oxypropanoate]
8 | 100 to 1000 nM | CCOC(=O)C(C)Oc1ccc2c(-c3ccc(C)cc3)cc(=O)oc2c1 (centres unmarked) [Compound 9, ethyl 2-[2-oxo-4-(p-tolyl)chromen-7-yl]oxypropanoate]
9 | 100 to 1000 nM | COC(=O)C1CCCN(C(=O)C(C)Oc2cc3oc(=O)cc(-c4ccccc4)c3cc2Cl)C1 (centres unmarked) [Compound 10, methyl 1-[2-(6-chloro-2-oxo-4-phenyl-chromen-7-yl)oxypropanoyl]piperidine-3-carboxylate]
10 | 100 to 1000 nM | CC(Oc1cc2oc(=O)cc(-c3ccccc3)c2cc1Cl)C(=O)Nc1ccccn1 (centres unmarked) [Compound 11, 2-(6-chloro-2-oxo-4-phenyl-chromen-7-yl)oxy-N-(2-pyridyl)propanamide]
11 | 100 to 1000 nM | CC(Oc1cc2oc(=O)cc(-c3ccccc3)c2cc1Cl)C(=O)N1CCCC(C(=O)O)C1 (centres unmarked) [Compound 13, 1-[2-(6-chloro-2-oxo-4-phenyl-chromen-7-yl)oxypropanoyl]piperidine-3-carboxylic acid]
12 | 100 to 1000 nM | CC(Oc1ccc2c(-c3ccccc3)cc(=O)oc2c1)C(=O)N1CCCC(C(=O)O)C1 (centres unmarked) [Compound 14, 1-[2-(2-oxo-4-phenyl-chromen-7-yl)oxypropanoyl]piperidine-3-carboxylic acid]
13 | 100 to 1000 nM | CC(Oc1ccc2c(-c3ccccc3)cc(=O)oc2c1)C(=O)Nc1ccc(CCO)cc1 (centres unmarked) [Compound 16, N-[4-(2-hydroxyethyl)phenyl]-2-(2-oxo-4-phenyl-chromen-7-yl)oxy-propanamide]
14 | 100 to 1000 nM | CC(Oc1cc2oc(=O)cc(-c3ccccc3)c2cc1Cl)C(=O)Nc1ccc(CCO)cc1 (centres unmarked) [Compound 17, 2-(6-chloro-2-oxo-4-phenyl-chromen-7-yl)oxy-N-[4-(2-hydroxyethyl)phenyl]propanamide]
15 | 100 to 1000 nM | CC(Oc1ccc2c(-c3ccccc3)cc(=O)oc2c1)C(=O)N(C)c1ccc(CCO)cc1 (centres unmarked) [Compound 18, N-[4-(2-hydroxyethyl)phenyl]-N-methyl-2-(2-oxo-4-phenyl-chromen-7-yl)oxy-propanamide]
16 | < 20 nM | CC(Oc1ccc2c(-c3ccccc3)cc(=O)oc2c1)C(=O)N1CCCC(c2nn[nH]n2)C1 (centres unmarked) [Compound 20, 7-[1-methyl-2-oxo-2-[3-(2H-tetrazol-5-yl)-1-piperidyl]ethoxy]-4-phenyl-chromen-2-one]

Row | IC50 | Structure (SMILES)
17 | 100 to 1000 nM | C[C@@H](Oc1ccc2c(-c3ccccc3)cc(=O)oc2c1)C(=O)N1CCC[C@H](C(=O)O)C1 [Compound 21, (3S)-1-[(2R)-2-(2-oxo-4-phenyl-chromen-7-yl)oxypropanoyl]piperidine-3-carboxylic acid]
18 | 100 to 1000 nM | O=C(COc1ccc2c(-c3ccccc3)cc(=O)oc2c1)Nc1ccccn1 [Compound 22, 2-(2-oxo-4-phenyl-chromen-7-yl)oxy-N-(2-pyridyl)acetamide]
19 | 1000 to 10000 nM | COC(=O)C1CCCN(C(=O)COc2ccc3c(-c4ccccc4)cc(=O)oc3c2)C1 (centres unmarked) [Compound 23, methyl 1-[2-(2-oxo-4-phenyl-chromen-7-yl)oxyacetyl]piperidine-3-carboxylate]
20 | 1000 to 10000 nM | CC(Oc1ccc2c(-c3ccccc3)cc(=O)oc2c1)C(=O)Oc1ccccc1 (centres unmarked) [Compound 24, phenyl 2-(2-oxo-4-phenyl-chromen-7-yl)oxypropanoate]
21 | 100 to 1000 nM | CC(Oc1ccc2c(-c3ccccc3)cc(=O)oc2c1)C(=O)Nc1ccccc1 (centres unmarked) [Compound 25, 2-(2-oxo-4-phenyl-chromen-7-yl)oxy-N-phenyl-propanamide]
22 | 100 to 1000 nM | CNC(=O)C(C)Oc1ccc2c(-c3ccccc3)cc(=O)oc2c1 (centres unmarked) [Compound 26, N-methyl-2-(2-oxo-4-phenyl-chromen-7-yl)oxy-propanamide]
23 | 1000 to 10000 nM | CC(Oc1cc2oc(=O)cc(-c3ccccc3)c2cc1Cl)C(=O)NCC(O)c1ccccc1 (centres unmarked) [Compound 27, 2-(6-chloro-2-oxo-4-phenyl-chromen-7-yl)oxy-N-(2-hydroxy-2-phenyl-ethyl)propanamide]
24 | 100 to 1000 nM | CC(Oc1cc2oc(=O)cc(-c3ccccc3)c2cc1Cl)C(=O)Nc1ccc(CCCO)cc1 (centres unmarked) [Compound 28, 2-(6-chloro-2-oxo-4-phenyl-chromen-7-yl)oxy-N-[4-(3-hydroxypropyl)phenyl]propanamide]
25 | 1000 to 10000 nM | CC(Oc1ccc2c(-c3ccccc3)cc(=O)oc2c1)C(=O)NCC(O)c1ccccc1 (centres unmarked) [Compound 29, N-(2-hydroxy-2-phenyl-ethyl)-2-(2-oxo-4-phenyl-chromen-7-yl)oxy-propanamide]
26 | 100 to 1000 nM | CCOC(=O)[C@H]1CCCN(C(=O)[C@@H](C)Oc2ccc3c(-c4ccccc4)cc(=O)oc3c2)C1 [Compound 35, ethyl (3S)-1-[(2R)-2-(2-oxo-4-phenyl-chromen-7-yl)oxypropanoyl]piperidine-3-carboxylate]
27 | 100 to 1000 nM | CC(Oc1ccc2c(-c3ccccc3)cc(=O)oc2c1)C(=O)N1CCC[C@H](C(=O)O)C1 (stereo partly drawn) [Compound 36, (3S)-1-[2-(2-oxo-4-phenyl-chromen-7-yl)oxypropanoyl]piperidine-3-carboxylic acid]
28 | 1000 to 10000 nM | CC(Oc1ccc2c(-c3ccccc3)cc(=O)oc2c1)C(=O)N1CCC[C@@H](C(=O)O)C1 (stereo partly drawn) [Compound 37, (3R)-1-[2-(2-oxo-4-phenyl-chromen-7-yl)oxypropanoyl]piperidine-3-carboxylic acid]
29 | 1000 to 10000 nM | COC(=O)[C@@H]1CCCN(C(=O)C(C)Oc2ccc3c(-c4ccccc4)cc(=O)oc3c2)C1 (stereo partly drawn) [Compound 38, methyl (3R)-1-[2-(2-oxo-4-phenyl-chromen-7-yl)oxypropanoyl]piperidine-3-carboxylate]
30 | 100 to 1000 nM | CC(Oc1ccc2c(-c3ccccc3)cc(=O)oc2c1)C(=O)N1CCCCC1 (centres unmarked) [Compound 39, 7-[1-methyl-2-oxo-2-(1-piperidyl)ethoxy]-4-phenyl-chromen-2-one]
31 | 100 to 1000 nM | CN(C(=O)COc1ccc2c(-c3ccccc3)cc(=O)oc2c1)c1ccc(CCO)cc1 [Compound 40, N-[4-(2-hydroxyethyl)phenyl]-N-methyl-2-(2-oxo-4-phenyl-chromen-7-yl)oxy-acetamide]
32 | 100 to 1000 nM | CCOC(=O)C(C)Oc1ccc2c(-c3ccc(Br)cc3)cc(=O)oc2c1 (centres unmarked) [Compound 41, ethyl 2-[4-(4-bromophenyl)-2-oxo-chromen-7-yl]oxypropanoate]
